Source: patent EP0907632B1, “INHIBITION OF MATRIX METALLOPROTEASES BY SUBSTITUTED PHENETHYL COMPOUNDS” (Bayer Corporation, priority 1996, dated 1997)

What was measured:
[1] = target: T1, MMP-3 (Homo sapiens, UniProt P08254); format: biochemical; conditions: 6 µM P218 substrate, pH 6.5, 25 min at 37°C; calculated from IC50; read-out: MMP-3 Kf
T1 construct: made in house; host or cells: CHO cells
Source text: (§1) The P218 quenched fluorescence assay (Microfluorometric Profiling Assay) is a modification of that originally described by Knight, et al., FEBS Lett. 296, 263, 1992 for a related substance and a variety of matrix metalloproteinases (MMPs) in cuvettes. The assay was run with each invention compound and the three MMPs, Mmp-3, MMP-9 and MMP-2, analyzed in parallel, adapted as follows for a 96-well microtiter plate and a Hamilton AT® workstation. P218 Fluorogenic Substrate: P218 is a synthetic substrate containing a 4-acetyl-7-methoxycoumarin (MCA) group in the N-terminal position and a 3-[2, 4-dinitrophenyl]-L-2,3-diaminopropionyl (DPA) group internally. This is a modification of a peptide reported by Knight (1992) that was used as a substrate for matrix metalloproteinases. Once the P218 peptide is cleaved (putative clip site at the Ala-Leu bond), the fluorescence of the MCA group can be detected on a fluorometer with excitation at 328 nm and emission at 393 nm. P218 is currently being produced BACHEM exclusively for Bayer. P218 has the structure: H-MCA-Pro-Lys-Pro-Leu-Ala-Leu-DPA-Ala-Arg-NH2 (MW 1332.2)
Recombinant Human CHO Pro-MMP-3: Human CHO pro-stromelysin-257 (pro-MMP-3) was expressed and purified as described by Housley, et al., J. Biol. Chem. 268, 4481, 1993.
Activation of Pro-MMP-3 Pro-MMP-3 at 1.72 µM (100 µg/mL) in 5 mM Tris at pH 7.5, 5 mM CaCl2, 25 mM NaCl, and 0.005% Brij-35 (MMP-3 activation buffer) was activated by incubation with TPCK (N-tosyl-(L)-phenylalanine chloromethyl ketone) trypsin (1:100 w/w to pro-MMP-3) at 25 °C for 30 min. The reaction was stopped by addition of soybean trypsin inhibitor (SBTI: 5:1 w/w to trypsin concentration). This activation protocol results in the formation of 45 kDa active MMP-3, which still contains the C-terminal portion of the enzyme.
(§2) Hamiltion Microlab AT P!us: The MMP-Profiling Assay is performed robotically on a Hamilton MicroLab AT Plus®. The Hamilton is programmed to: (1) serially dilute up to 11 potential inhibitors automatically from a 2.5 mM stock in 100% DMSO; (2) distribute substrate followed by inhibitor into a 96 well Cytofluor plate; and (3) add a single enzyme to the plate with mixing to start the reaction. Subsequent plates for each additional enzyme are prepared automatically by beginning the program at the substrate addition point, remixing the diluted inhibitors and beginning the reaction by addition of enzyme. In this way, all MMP assays were done using the same inhibitor dilutions.
(§3) Millipore Cytofluor II. Following incubation, the plate was read on a Cytofluor II fluorometric place reader with excitation at 340 nm and emission at 395 nm with the gain set at 80.
(§4) Microfluorometric Reaction Buffer (MRB): Dilution of test compounds, enzymes, and P218 substrate for the microfluorometric assay were made in microfluorometric reaction buffer consisting of 50 mM 2-(N-morpholino)ethanesulfonic acid (MES) at pH 6.5 with 10 mM CaCl2, 150 mM NaCl, 0.005% Brij-35 and 1% DMSO.
(§5) MMP Microfluorometric Profiling Assay. The assay is done with a final substrate concentration of 6 µM P218 and approximately .5 to .8 nM MMP with variable drug concentrations. The Hamilton is programmed to serially dilute up to 11 compounds from a 2.5 mM stock (100% DMSO) to 10x the final compounds concentrations in the assay. Initially, the instrument delivers various amounts of microfluoromentric reaction buffer (MRB) to a 96 tube rack of 1 ml Marsh dilution tubes. The instrument then picks up 20 µl of inhibitor (2.5 mM) from the sample rack and mixes it with a buffer in row A of the Marsh rack, resulting in a 50 µM drug concentration. The inhibitors are then serially diluted to 10, 5, 1, .2, .05 and .01 µM. Position 1 on the sample rack contains only DMSO for the "enzyme-only" wells in the assay, which results in no inhibitor in column 1, rows A through H. The instrument then distributes 107 µl of P218 substrate (8.2 µM in MRB) to a single 96 well cytofluor microtiter plate. […]

[2] = target: T2, MMP-2 (Homo sapiens, UniProt P08253); assay: biochemical
T2 sequence (P08253 110-660): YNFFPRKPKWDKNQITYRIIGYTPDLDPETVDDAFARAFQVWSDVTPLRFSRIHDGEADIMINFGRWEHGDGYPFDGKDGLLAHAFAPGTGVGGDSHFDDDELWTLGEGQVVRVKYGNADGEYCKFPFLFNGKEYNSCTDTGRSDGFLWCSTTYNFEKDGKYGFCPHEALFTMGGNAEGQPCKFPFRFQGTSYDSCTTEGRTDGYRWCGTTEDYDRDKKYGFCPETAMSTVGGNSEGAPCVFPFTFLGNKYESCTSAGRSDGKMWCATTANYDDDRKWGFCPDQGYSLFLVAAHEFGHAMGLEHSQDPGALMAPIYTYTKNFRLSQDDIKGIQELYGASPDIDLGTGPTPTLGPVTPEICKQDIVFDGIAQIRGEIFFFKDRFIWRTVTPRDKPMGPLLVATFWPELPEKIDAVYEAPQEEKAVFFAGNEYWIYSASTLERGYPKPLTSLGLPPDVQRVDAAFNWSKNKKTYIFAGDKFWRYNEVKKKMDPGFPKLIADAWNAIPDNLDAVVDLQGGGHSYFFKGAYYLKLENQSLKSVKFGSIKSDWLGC

[3] = target: T3, MMP-9 (Homo sapiens, UniProt P14780); format: biochemical; conditions: 6 µM P218 substrate, pH 6.5, 25 min at 37°C; calculated from IC50; read-out: MMP-9 Kf
T3 construct: made in house
T3 sequence (P14780 107-707 limits assumed): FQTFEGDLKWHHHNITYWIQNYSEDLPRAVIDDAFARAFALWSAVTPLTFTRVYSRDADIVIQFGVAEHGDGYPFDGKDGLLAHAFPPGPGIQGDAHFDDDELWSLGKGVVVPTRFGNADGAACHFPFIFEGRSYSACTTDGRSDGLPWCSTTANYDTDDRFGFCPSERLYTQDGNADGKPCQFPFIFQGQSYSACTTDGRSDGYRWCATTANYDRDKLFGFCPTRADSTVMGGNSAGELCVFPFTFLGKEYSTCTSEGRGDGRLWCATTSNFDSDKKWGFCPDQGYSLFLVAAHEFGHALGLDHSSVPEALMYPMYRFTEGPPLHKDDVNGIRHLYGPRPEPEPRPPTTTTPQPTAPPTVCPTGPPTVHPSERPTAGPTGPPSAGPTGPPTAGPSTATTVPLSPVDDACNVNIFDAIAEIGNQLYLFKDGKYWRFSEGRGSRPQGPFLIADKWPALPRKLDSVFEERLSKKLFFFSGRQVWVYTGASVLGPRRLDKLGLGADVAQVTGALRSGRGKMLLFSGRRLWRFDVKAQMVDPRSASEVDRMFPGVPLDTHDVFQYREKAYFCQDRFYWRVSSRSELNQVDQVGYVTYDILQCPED
Source text: as §1
Recombinant Human Pro-MMP-9: Human pro-gelatinase B (pro-MMP-9) derived from U937 cDNA as described by Wilhelm, et al. J. Biol. Chem. 264, 17213, 1989 was expressed as the full-length form using a baculovirus protein expression system. The pro-enzyme was purified using methods previously described by Hibbs, et al. J. Biol. Chem. 260, 2493, 1984.
Activation of Pro-MMP-9: […] 20 µg/mL in 50 mM Tris at pH 7.4, 10mM CaCl2, 150 mM NaCl, and 0.005% Brij-35 (MMP-9 activation buffer) was activated by incubation with 0.5 mM p-aminophenylmercuric acetate (APMA) for 3.5 h at 37 °C. The enzyme was dialyzed against the same buffer to remove the APMA.
as §2, §3, §4, §5

T1 sequence (P08254 100-477): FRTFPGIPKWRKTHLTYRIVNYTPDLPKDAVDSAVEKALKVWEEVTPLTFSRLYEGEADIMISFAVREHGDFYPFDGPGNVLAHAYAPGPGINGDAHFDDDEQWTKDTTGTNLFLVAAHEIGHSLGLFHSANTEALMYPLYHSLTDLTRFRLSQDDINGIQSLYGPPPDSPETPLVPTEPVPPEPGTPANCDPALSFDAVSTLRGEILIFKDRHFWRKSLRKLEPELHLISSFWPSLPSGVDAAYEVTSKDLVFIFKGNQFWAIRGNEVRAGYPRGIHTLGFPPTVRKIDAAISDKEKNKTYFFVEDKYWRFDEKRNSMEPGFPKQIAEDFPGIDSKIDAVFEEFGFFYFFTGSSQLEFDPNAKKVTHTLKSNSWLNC

SMILES	Ki [1] [µM]	Ki [2] [µM]	Ki [3] [µM]
CC(C)CCNC(=O)c1cccc(CCC(CC(=O)c2ccc(-c3ccc(Cl)cc3)cc2)C(=O)O)c1 (stereo not drawn) [XIV, 4'-chloro-α-[2-[3-[[(3-methylbutyl)amino]carbonyl]phenyl]ethyl]-γ-oxo-[1,1'-biphenyl]-4-butanoic acid]	0.308	0.11	0.707
CCOC(=O)CNC(=O)c1ccc(CCC(CC(=O)c2ccc(-c3ccc(Cl)cc3)cc2)C(=O)O)cc1 (stereo not drawn) [XIX, 4'-chloro-α-[2-[4-[[(2-ethoxy-2-oxoethyl)amino]carbonyl]phenyl]ethyl]-γ-oxo[1,1'-biphenyl]4-butanoic acid]	0.376	0.0823	0.423
O=C(CC(CCc1cccc(C(=O)NCc2ccccc2)c1)C(=O)O)c1ccc(-c2ccc(Cl)cc2)cc1 (stereo not drawn) [XV, 4'-chloro-γ-oxo-α-[2-[3-[[(phenylmethyl)amino]carbonyl]phenyl]ethyl]-[1,1'-biphenyl]-4-butanoic acid]	0.364	0.104	0.493
CCOC(=O)CN(C)C(=O)c1cccc(CCC(CC(=O)c2ccc(-c3ccc(Cl)cc3)cc2)C(=O)O)c1 (stereo not drawn) [XVI, 4'-chloro-α-[2-[3-[[(2-ethoxy-2-oxoethyl)methylamino]carbonyl]phenyl]ethyl]-γ-oxo-[1,1'-biphenyl]-4-butanoic acid]	0.0248	0.00986	0.137
CC(C)CCNC(=O)c1ccc(CCC(CC(=O)c2ccc(-c3ccc(Cl)cc3)cc2)C(=O)O)cc1 (stereo not drawn) [XVIII, 4'-chloro-α-[2-[4-[[(3-methylbutyl)amino]carbonyl]phenyl]ethyl]-γ-oxo-[1,1'-biphenyl]-4-butanoic acid]	0.677	0.137	0.452
